Data from patent US20100256043A1, “USE OF A PEPTIDE AS A THERAPEUTIC AGENT” (priority 2007, published 2010).
Residues, ends and D or L forms follow the SMILES beside them.

How the values were obtained:
[1] = test system: HIV-1IIIB; test: HIV-1 antiviral assay (CPE reduction) in CEM-SS cells; assay type: cell-based; details: peptide 10 micrograms per ml; 6 days post-infection; MTS readout
[2] = test system: CEM-SS cells; test: Cytotoxicity (MTS cell viability) in the HIV-1 assay; details: peptide 10 micrograms per ml
[3] = test system: hepatitis B virus (HBV) ayw strain; test: HBV replication assay in HepG2-2.2.15 cells (TaqMan PCR of secreted HBV DNA); assay type: cell-based; details: peptide 10 micrograms per ml, six days, HBV DNA in supernatant
[4] = Cell viability (dye uptake) in the HBV assay; assay type: cell-based; details: human, HepG2-2.2.15 cells, peptide 10 micrograms per ml
[5] = test system: Human A549 cells; test: Propidium iodide cell cycle assay; assay type: cell-based; details: 10 micrograms per ml, 24 hours, FACS
[6] = test system: Human Peripheral Blood Mononuclear Cells (PBMC), B cell proliferation; test: B cell proliferation assay (SAC plus IL-2 stimulated PBMC, 3H-thymidine); assay type: cell-based; details: 10 micrograms per ml
[7] = test system: RAW 264.7 cells; test: Phagocytosis assay (Fluorescein-labeled Escherichia coli, flow cytometry); assay type: cell-based, mouse; details: 10 micrograms per ml, Fluorescein-labeled E. coli
Procedure: The samples were then analyzed by flow cytometry to determine the amount of phagocytosis as a function of brightness (the greater the phagocytic activity, the more fluorescence in the macrophage population). Data are reported as % positive and the mean fluorescence intensity (MFI) of positively stained cells.

[8] = test system: Human A549 cells; test: Apoptosis induction assay (Annexin-5); assay type: cell-based; details: 24 hours
Procedure: Human A549 cells (carcinomic human alveolar basal epithelial cells) were utilized in the experiments employing the Annexin-5 apoptosis assay. […] Test peptide-micrograms per ml—were exposed for 24 hours to the A549 cells before they were analyzed for signs of apoptosis.

[9] = test system: Human A549 cells; test: Apoptosis prevention assay (C2 ceramide, Annexin-5); assay type: cell-based; details: 10 micrograms per ml pretreatment 30 min
Excerpt: Human A549 cells (carcinomic human alveolar basal epithelial cells) were utilized in the experiments employing the Annexin-5 apoptosis assay.

[10] = test system: spleen cells of Ovalbumin-immunized Balb/c mice; test: Th1/Th2 cytokine profiling assay (Ovalbumin-restimulated spleen cells, CBA kit); assay type: cell-based, mouse; details: 10 micrograms per ml; Ovalbumin restimulation; 72 hours
[11] = test system: macrophages differentiated from human PBMC, TNF alpha production; test: TNF alpha production assay (LPS-stimulated macrophages, ELISA); assay type: cell-based; details: 10 micrograms per ml, lipopolysaccharide 200 ng/ml, overnight
Excerpt: Not stimulated macrophages served as negative background control.

[12] = test system: Primary Human endothelial cells (HUVEC); test: Endothelial cell migration assay; assay type: cell-based; details: 10 micrograms per ml, 22 hours
[13] = test system: HUVEC; test: Endothelial tube formation assay; assay type: cell-based, human; details: 10 micrograms per ml, 20 hours
Excerpt: Positive control was vehicle only.

[14] = test system: human peripheral blood mononuclear cells (PBMC), cyclic AMP generation; test: cAMP induction assay (ELISA); assay type: cell-based; details: 10 min at 37° C., forskolin 50 micrograms per ml
Procedure: The cAMP kit was used as an immunoassay for the quantitative determination of cyclic AMP generation in human peripheral blood mononuclear cells (PBMC). PBMC were placed in 96-well microtitier plates (50 microliters of cells at 4×10^6/ml) and 50 microliters of medium alone (background control), forskolin (cAMP positive control; 50 micrograms per ml), or test peptide were added. […] NaOH was added to neutralize the samples. Plates were centrifuged for 15 min at 2500 rpm and the supernatants removed. The supernatants (diluted 2-fold in assay buffer) were then assayed for the levels of cAMP by ELISA.

[15] = in vitro; details: human, CEM-SS cells (uninfected; cells plus peptide only)
[16] = in vitro; details: human, MRC-5 cells (embryonal lung fibroblasts)
[17] = test system: HCMV strain AD169; test: HCMV plaque reduction assay in MRC-5 cells; details: HCMV AD169 in MRC-5 cells; peptide 10 micrograms per ml; 7-10 days
[18] = test system: Human Peripheral Blood Mononuclear Cells (PBMC), T cell proliferation; test: T cell proliferation assay (PHA-stimulated PBMC, 3H-thymidine); details: 10 micrograms per ml
[19] = test system: HepG2-2.2.15 cells; test: Cell viability (dye uptake) in the HBV assay; assay type: cell-based; details: peptide 10 micrograms per ml

Compound: Cc1cn([C@H]2C[C@H](N=[N+]=[N-])[C@@H](CO)O2)c(=O)[nH]c1=O [AZT, reference compound]
- % CPE reduction in HIV-1 infected CEM-SS cells [1]: 99%
- % Cell viability [2]: 97%

Compound: CC[C@H](C)[C@H](NC(=O)[C@H](C)NC(=O)CNC(=O)[C@H](CCCNC(=N)N)NC(=O)[C@H](C)NC(=O)[C@H](CC(C)C)NC(=O)[C@H](CCC(=O)O)NC(=O)[C@H](CC(C)C)NC(=O)[C@H](C)NC(=O)[C@@H](N)CCC(=O)O)C(=O)N[C@@H](Cc1ccccc1)C(=O)N[C@@H](CCC(N)=O)C(=O)N[C@@H](C)C(N)=O [BINP] (H-EALELARGAIFQA-NH2)
- % CPE reduction in HIV-1 infected CEM-SS cells [1]: 0.0%
- % inhibition of HBV replication in HEP G2 cells [3]: 8.2%
- viability at 144 h, 10 micrograms per ml [4]: 96.9%
- Cell cycle analysis G0/G1 [5]: 57.9
- Cell cycle analysis G2/M [5]: 12.2
- Cell cycle analysis S [5]: 29.9
- % of SAC/IL2 induced control [6]: 96.5%
- % of control phagocytosis [7]: 134.3%
- % of induction [8]: 0.2%
- % prevention of ceramide induced apoptosis [9]: 0.0%
- IFNγ spleen cells; TH1 response (% of control) [10]: 133.9 % of control
- IL-2 spleen cells (% of control) [10]: 0.0 % of control
- IL-4 spleen cells; TH2 response (% of control) [10]: 0.0 % of control
- IL-5 spleen cells; TH2 response (% of control) [10]: 50.3 % of control
- TNF-a spleen cells; TH1 response (% of control) [10]: 97.0 % of control
- % of LPS induction [11]: 102.3%
- % inhibition of migration [12]: 8%
- % inhibition of tube formation [13]: −1%
- % of Forskolin (positive control) induced cAMP formation [14]: 44.3%
- viability at 10 micrograms per ml [15]: 99.1%
- viability at 144 h [16]: 99.7%
- % plaque reduction [17]: 1.0%
- % of PHA induced Control [18]: 96.2%

Compound: Nc1ccn([C@@H]2CS[C@H](CO)O2)c(=O)n1 [Compound 3TC, Lamivudine, reference compound]
- % Cell viability [19]: 95.8%
